{
  "source": "patent US8193384B2",
  "about": "“Polymer-bound phosphitylating reagents for the synthesis of organophosphorus compounds” (priority 2005, dated 2012)",
  "key": {"[1]": {"tested_on": "mismatched 12-mer modified or unmodified ODNs of 3′-d(CCCCCCCCCCCC)", "assay": "Base-discriminating properties: UV melting with mismatched ODNs", "format": "binding", "settings": "with mismatched 12-mer modified or unmodified 3′-d(CCCCCCCCCCCC)"}, "[2]": {"tested_on": "complementary chains of modified and unmodified ODNs", "assay": "Thermal denaturation studies (UV melting, Tm) of ODN duplexes", "format": "binding", "settings": "for Tm: modified oligomer bound to its complementary unmodified oligomer"}},
  "data": [
    {"substance": "Modified d(AAAAAAAAAAAA) (SEQ ID NO: 1) Containing Diphosphodiester Internucleotide Linkage (DNA, backbone not given here; contains diphosphodiester internucleotide linkage(s), further chemistry not fully specified) [Compound 13]", "values": [
      {"measurement": "melting transition", "setting": "[1]", "result": "no melting transition was observed"},
      {"measurement": "Tm", "setting": "[2]", "result": 39.7, "unit": "°C"}
    ]},
    {"substance": "Modified d(ATATATATATAT) (SEQ ID NO: 5) Containing Diphosphodiester Internucleotide Linkage (DNA, backbone not given here; contains a diphosphodiester internucleotide linkage) [Compound 17]", "values": [
      {"measurement": "ΔTm", "setting": "[2]", "result": "+1.8 °C"}
    ]},
    {"substance": "Modified d(GGGGGGGGGGGG) (SEQ ID NO: 4) Containing Diphosphodiester Internucleotide Linkage [Compound 16]", "values": [
      {"measurement": "binding affinity towards modified 3′-d(CCCCCCCCCCCC) compared with unmodified 3′-d(CCCCCCCCCCCC)", "setting": "[2]", "result": "higher binding affinity"}
    ]},
    {"substance": "Modified d(TATATATATATA) (SEQ ID NO: 6) Containing Diphosphodiester Internucleotide Linkage (DNA, backbone not given here; contains a diphosphodiester internucleotide linkage) [Compound 18]", "values": [
      {"measurement": "ΔTm", "setting": "[2]", "result": "+3.2 °C"}
    ]},
    {"substance": "Modified d(TTTTTTTTTTTT) (SEQ ID NO: 2) Containing Diphosphodiester Internucleotide Linkage (diphosphodiester internucleotide linkage) [Compound 14]", "values": [
      {"measurement": "Tm", "setting": "[2]", "result": 39.5, "unit": "°C"}
    ]}
  ]
}
